No end group written: not given here.
Columns and labels:
δPKC = molecular target: T1, δPKC (Mus musculus, UniProt P28867); assay: MARCKS phosphorylation in wild-type fibroblasts (Western blot); type: cell-based; conditions: 20% serum, peptides conjugated to TAT47-57, relative to control peptide
T1 construct: endogenous in cells; host or cells: primary fibroblasts from wild-type mice
Description: (§1) Fibroblasts were isolated from wild-type or δPKC knockout mice (provided by Dr. Robert Messing, Gallo Center, UCSF) as previously described (Disatnik et al., 2004, J. Cell Sci., 117:4469-4479) and maintained in 20% fetal bovine serum.
(§2) Phosphorylation of myristoylated alanine-rich C kinase substrate (MARCKS), a ubiquitous PKC substrate, was monitored by Western blot of total cell lysates, using anti-phosphorylated MARCKS (Cell Signaling, Danvers, Mass.). Anti-MARCKS and anti-δPKC antibodies were obtained from Santa Cruz Biotechnology (Santa Cruz Biotechnology, CA, USA).
(§3) The ΨPDK sequence is found both in PDK and in the PDK-cognate protein, δPKC. It was therefore predicted that ΨPDK mimics inhibitory intra-molecular interaction, and, similar to ΨδRACK, ΨPDK should compete with the inhibitory interaction of PDK and δPKC, and increase δPKC-mediated functions (FIG. 1A). Phosphorylation of myristoylated alanine-rich C-kinase substrate (MARCKS) was used as a marker of PKC activity (Disatnik et al., 2004, J. Cell. Sci., 117:4469-4479). […] To determine the selectivity of the peptides for δPKC, fibroblasts derived from δPKC knock-out mice were also used.

[1] = tested on: fibroblasts derived from δPKC knock-out mice; assay: MARCKS phosphorylation in fibroblasts from δPKC knock-out mice; type: cell-based, mouse; conditions: fibroblasts lacking δPKC
Description: as §1, §2, §3

hearts subjected to I/R = assay: Ex vivo cardiac protection from ischemia/reperfusion (Langendorff; infarct size, CPK release); design: species or system rat; conditions: for cardioprotection / biological activity in ex vivo I/R model (in words): CPK release and JNK phosphorylation as markers; for CPK (u/L) / protection from I/R injury: ex vivo I/R; for CPK (u/L): release into perfusate, 1 μM peptide; for protection from I/R injury: n=6
Experimental: An ex vivo model of acute ischemic heart damage was used, which involves a 30 min equilibration period, followed by 30 min of global ischemia, which in turn is followed by 60 min of reperfusion. The hearts were perfused with 1 μM TAT or TAT-conjugated peptide. Normoxic control hearts were subjected to 90 min perfusion in the absence of ischemia. Coronary effluent was collected to determine creatine phosphokinase (CPK) release during the first 30 min of the reperfusion period. At the end of the reperfusion period, hearts were sliced into 1-mm-thick transverse sections and incubated in triphenyltetrazolium chloride solution (TTC, 1% in phosphate buffer, pH 7.4) at 37° C. for 15 min. Infarct size was expressed as a percentage of the risk zone (equivalent to total LV muscle mass) (methods described in Brandman et al., 2007, J. Biol. Chem., 282:4113-4123; Inagaki et al., 2003, Circulation, 108:869-875). […]
(§4) First, I/R-induced infarct size after treatment with ΨPDK or δV1-1 (Inagaki et al., 2003, Circulation, 108:869-875), was smaller than that in hearts treated with the control peptide or with ΨδRACK, the δPKC-specific activator or with δV1-5 (FIG. 6A). Second, similar data were obtained when determining the levels of released creatine phosphokinase (CPK), as a marker of myocardial infarction; CPK levels in the ΨPDK- or δV1-1-treated hearts were similar and were lower than those after treatment with control peptide, ΨδRACK or δV1-5 (FIG. 6B).
(§5) To begin determining the contribution of each of the amino acids on the effect of the peptide, Alanine scanning was used (Brunel et al., 2006, J. Virol., 80:1680-1687; Chen et al., J. Pep. Res., 2000, 56:147-156; Brems et al., 1992, Prot. Eng., 5:527-533) (substituting individual amino acid with an alanine). The resultant ΨPDK peptide analogs were then used in the same model of myocardial infarction, using CPK release and JNK phosphorylation as markers for cardiac injury. CPI release into the perfusates and pJNK in the hearts were determined after I/R in the presence of respective peptides and compared to the levels in hearts subjected to I/R in the presence of the control peptide. None of the peptides having a substitution had any significant biological activity (Table 1).

JNK = JNK phosphorylation in hearts subjected to I/R (Western blot); design: species or system rat; conditions: ex vivo I/R hearts, 1 μM peptide
Experimental: An ex vivo model of acute ischemic heart damage was used, which involves a 30 min equilibration period, followed by 30 min of global ischemia, which in turn is followed by 60 min of reperfusion. The hearts were perfused with 1 μM TAT or TAT-conjugated peptide. Normoxic control hearts were subjected to 90 min perfusion in the absence of ischemia. Coronary effluent was collected to determine creatine phosphokinase (CPK) release during the first 30 min of the reperfusion period. At the end of the reperfusion period, hearts were sliced into 1-mm-thick transverse sections and incubated in triphenyltetrazolium chloride solution (TTC, 1% in phosphate buffer, pH 7.4) at 37° C. for 15 min. Infarct size was expressed as a percentage of the risk zone (equivalent to total LV muscle mass) (methods described in Brandman et al., 2007, J. Biol. Chem., 282:4113-4123; Inagaki et al., 2003, Circulation, 108:869-875).
Rat hearts were homogenized in a buffer containing 210 mM mannitol, 70 mM sucrose, 5 mM MOPS and 1 mM EDTA followed by isolation of the mitochondria fraction (described in Churchill et al., 2008, J. Mol. Cell. Cardiol., 46:278-284) and identified by the presence of VDAC (MitoSciences, Eugene, Oreg., USA). The level of phosphorylated and unphosphorylated JNK1/2 was analyzed in the total fraction using respective specific antibodies (Cell Signaling, Danvers, Mass. and Santa Cruz Biotechnology, CA, USA).
as §4, §5

T1 sequence (P28867 whole entry): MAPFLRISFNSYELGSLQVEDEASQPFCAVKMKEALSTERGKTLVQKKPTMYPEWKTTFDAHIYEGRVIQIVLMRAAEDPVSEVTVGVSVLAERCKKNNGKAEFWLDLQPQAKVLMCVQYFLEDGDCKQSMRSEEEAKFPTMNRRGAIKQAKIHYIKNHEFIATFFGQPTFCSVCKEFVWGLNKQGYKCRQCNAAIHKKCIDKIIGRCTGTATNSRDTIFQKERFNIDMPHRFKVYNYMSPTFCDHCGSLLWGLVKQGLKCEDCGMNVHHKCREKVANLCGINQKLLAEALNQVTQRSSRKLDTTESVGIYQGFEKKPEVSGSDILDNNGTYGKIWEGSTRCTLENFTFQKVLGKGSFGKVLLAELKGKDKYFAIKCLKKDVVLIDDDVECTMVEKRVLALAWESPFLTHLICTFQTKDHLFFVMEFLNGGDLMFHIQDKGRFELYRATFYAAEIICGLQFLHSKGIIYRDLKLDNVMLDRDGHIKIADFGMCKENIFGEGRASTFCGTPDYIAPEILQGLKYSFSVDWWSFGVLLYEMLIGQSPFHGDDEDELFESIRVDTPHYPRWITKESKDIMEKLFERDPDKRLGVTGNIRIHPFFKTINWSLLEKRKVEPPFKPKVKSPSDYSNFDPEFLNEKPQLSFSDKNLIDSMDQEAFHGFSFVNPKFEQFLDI

Compound | CPK (u/L) (hearts subjected to I/R) | p-JNK/total JNK (JNK) | other results
CCCCCCCCCCCCCC(=O)O[C@@H]1[C@@H](C)[C@@]2(O)[C@@H](C=C(CO)C[C@]3(O)C(=O)C(C)=C[C@@H]23)[C@@H]2C(C)(C)[C@]12OC(C)=O [PMA, Phorbol 12-myristate 13-acetate, reference compound] | – | – | MARCKS phosphorylation (δPKC): caused increased MARCKS phosphorylation
GKTLVQ (not fully specified (C-terminus); also: TAT47-57 conjugated via disulfide to C-terminal Cys) [δV1-5, reference compound] | – | – | MARCKS phosphorylation (δPKC): increased MARCKS phosphorylation; MARCKS phosphorylation [1]: increased MARCKS phosphorylation
ALS(p)TER [p198] | 1169 ± 293 u/L | 0.9 ± 0.10 | cardioprotection / biological activity in ex vivo I/R model (in words) (hearts subjected to I/R): None of the phosphorylated peptides (p197, 198, 199) affected cardioprotection
ALATER [p193] | 1155 ± 299 u/L | 0.7 ± 0.03 | –
ALSTEA [p196] | 926 ± 265 u/L | 0.9 ± 0.10 | –
ΨPDK-Cs-sC-TAT: SEQ ID NO. 2 linked to SEQ ID NO. 33 (TAT) via a disulfide bond (chain 1 ALSTER; chain 2 YGRKKRRQRRR; not fully specified; disulfide bond linkage) | – | – | protection from I/R injury (hearts subjected to I/R): 45%
ALSAER [p194] | 886 ± 211 u/L | 0.6 ± 0.10 | –
ALS(p)T(p)ER [p199] | 842 ± 258 u/L | 0.6 ± 0.02 | cardioprotection / biological activity in ex vivo I/R model (in words) (hearts subjected to I/R): None of the phosphorylated peptides (p197, 198, 199) affected cardioprotection
AASTER [p192] | 1272 ± 172 u/L | 0.7 ± 0.10 | –
ALSTAR [p195] | 913 ± 199 u/L | 0.7 ± 0.10 | –
YGRKKRRQRRRGSGALSTER [TAT-GSG-ΨPDK] | – | – | protection from I/R injury (hearts subjected to I/R): 73%
ALST(p)ER [p197] | 803 ± 131 u/L | 0.7 ± 0.10 | cardioprotection / biological activity in ex vivo I/R model (in words) (hearts subjected to I/R): None of the phosphorylated peptides (p197, 198, 199) affected cardioprotection

Source: patent US10131691B2, “Compositions and methods for specific regulation of pyruvate dehydrogenase kinase” (THE BOARD OF TRUSTEES OF THE LELAND STANFORD JUNIOR …, priority 2011, dated 2018)
